Reference: PubChem BioAssay (NCI)
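Cells were grown in 96-well plates and exposed to each compound for 48 hours at five concentrations; endpoints were interpolated linearly between bracketing concentrations, or set to the highest concentration if not reached. Here, GI50 denotes the concentration required for 50% inhibition of growth. TGI: total growth inhibition.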

What was measured:
Assay in all cases: growth of human tumour cells (NCI), 48 h
BT-549 breast = test system: BT-549 breast
UACC-257 melanoma = test system: UACC-257 melanoma
HCC-2998 colon = test system: HCC-2998 colon
T-47D breast = test system: T-47D breast
NCI-H226 lung = test system: NCI-H226 lung
SF-268 CNS = test system: SF-268 CNS
NCI/ADR-RES ovarian = test system: NCI/ADR-RES ovarian
COLO 205 colon = test system: COLO 205 colon
SK-MEL-5 melanoma = test system: SK-MEL-5 melanoma
TK-10 renal = test system: TK-10 renal
HT29 colon = test system: HT29 colon
UO-31 renal = test system: UO-31 renal
HCT-116 colon = test system: HCT-116 colon
KM12 colon = test system: KM12 colon
M14 melanoma = test system: M14 melanoma
NCI-H460 lung = test system: NCI-H460 lung
MOLT-4 leukemia = test system: MOLT-4 leukemia
CCRF-CEM leukemia = test system: CCRF-CEM leukemia
HCT-15 colon = test system: HCT-15 colon
SNB-19 CNS = test system: SNB-19 CNS
OVCAR-4 ovarian = test system: OVCAR-4 ovarian
SK-MEL-28 melanoma = test system: SK-MEL-28 melanoma
HOP-92 NSCLC = test system: HOP-92 NSCLC
OVCAR-3 ovarian = test system: OVCAR-3 ovarian
SF-295 CNS = test system: SF-295 CNS
SF-539 CNS = test system: SF-539 CNS
EKVX NSCLC = test system: EKVX NSCLC
RPMI-8226 leukemia = test system: RPMI-8226 leukemia
K-562 leukemia = test system: K-562 leukemia

With COc1ccc(/C=C(/C(=O)N2CCN(c3ccccc3)CC2)c2cc(OC)c(OC)c(OC)c2)cc1O the TGI (BT-549 breast) was 98.5 µM, the GI50 (UACC-257 melanoma) was 30.6 µM and the TGI (UACC-257 melanoma) was greater than 100 µM. For the same compound, the GI50 (HCC-2998 colon) was 0.499 µM, the TGI (HCC-2998 colon) was greater than 100 µM and the GI50 (T-47D breast) was 51.3 µM. The TGI (T-47D breast) was greater than 100 µM, the GI50 (NCI-H226 lung) was 60.9 µM and the TGI (NCI-H226 lung) was greater than 100 µM. For the same compound, the GI50 (SF-268 CNS) was 0.543 µM, the TGI (SF-268 CNS) was greater than 100 µM and the GI50 (NCI/ADR-RES ovarian) was 0.676 µM. For the same compound, the TGI (NCI/ADR-RES ovarian) was greater than 100 µM, the GI50 (COLO 205 colon) was 3.89 µM and the TGI (COLO 205 colon) was 22.1 µM. It also gave a GI50 (SK-MEL-5 melanoma) of 0.361 µM, a TGI (SK-MEL-5 melanoma) of 11.8 µM and a GI50 (TK-10 renal) of 23.4 µM. For the same compound, the TGI (TK-10 renal) was greater than 100 µM, the GI50 (HT29 colon) was 5 µM and the TGI (HT29 colon) was 38.5 µM. It also gave a TGI (UO-31 renal) of 90.8 µM, a GI50 (HCT-116 colon) of 0.37 µM and a TGI (HCT-116 colon) greater than 100 µM. The GI50 (KM12 colon) was 0.414 µM, the TGI (KM12 colon) was greater than 100 µM and the GI50 (M14 melanoma) was 0.315 µM. It also gave a TGI (M14 melanoma) of 24 µM, a GI50 (NCI-H460 lung) of 0.374 µM and a TGI (NCI-H460 lung) greater than 100 µM. It also gave a GI50 (MOLT-4 leukemia) of 0.368 µM, a TGI (MOLT-4 leukemia) greater than 100 µM and a GI50 (CCRF-CEM leukemia) of 0.355 µM. The TGI (CCRF-CEM leukemia) was greater than 100 µM, the GI50 (HCT-15 colon) was 0.341 µM and the TGI (HCT-15 colon) was greater than 100 µM. The GI50 (SNB-19 CNS) was 0.481 µM, the TGI (SNB-19 CNS) was greater than 100 µM and the GI50 (OVCAR-4 ovarian) was 2.7 µM. It also gave a TGI (OVCAR-4 ovarian) greater than 100 µM, a GI50 (SK-MEL-28 melanoma) of 0.671 µM and a TGI (SK-MEL-28 melanoma) greater than 100 µM. For the same compound, the GI50 (HOP-92 NSCLC) was 22 µM, the TGI (HOP-92 NSCLC) was greater than 100 µM and the GI50 (OVCAR-3 ovarian) was 0.322 µM. The TGI (OVCAR-3 ovarian) was 6.76 µM, the GI50 (SF-295 CNS) was 0.808 µM and the TGI (SF-295 CNS) was greater than 100 µM. For the same compound, the GI50 (SF-539 CNS) was 0.205 µM, the TGI (SF-539 CNS) was 0.708 µM and the GI50 (EKVX NSCLC) was 0.631 µM. The TGI (EKVX NSCLC) was greater than 100 µM, the GI50 (RPMI-8226 leukemia) was 0.374 µM and the TGI (RPMI-8226 leukemia) was 21.4 µM. It also gave a GI50 (K-562 leukemia) of 0.296 µM and a TGI (K-562 leukemia) greater than 100 µM.
